Source: patent US20090018194A1, “Use of antimicrobial agents derived from alliaceous plants for the prevention and control of crop diseases, post-harvest rot and as environmental disinifectant products” (DMC Research Center, S.L., priority 2007, published 2009)

How the values were obtained:
[1] = test system: the most characteristic diseases that affect these crops; assay: in vivo tests against pre-harvest diseases in various crops (Table 7); details: pre-harvest diseases and pathogens listed in Table 7
Method: B. Likewise, numerous tests were conducted “in vivo” to determine the effectiveness of the products for pre- and post-harvest treatments, and also as disinfectant agents for agricultural soils and facilities in the food processing industries.
In post-harvest treatments, tests were conducted in strawberries, citrus fruits, stone fruits and tropical fruits. Tests were also conducted on vegetable plants in a greenhouse (tomatoes, melons, zucchini, peppers, cucumbers and green beans).

[2] = test system: Botrytis cinerea; assay: field control of Botrytis in strawberries, foliar spraying; assay type: in vivo; details: after 12 days
[3] = test system: Penicillium sp. (CPC-PT-4); assay: agar diffusion test, wild fungi isolated from crown rot in bananas; assay type: cell-based; details: incl. 6 mm disc
[4] = test system: Bacillus megaterium ATCC 33085; assay: agar diffusion test with impregnated cellulose discs; assay type: cell-based; details: incl. 6 mm disc
[5] = test system: Saccharomyces cerevisiae CECT 1324; assay: as above; assay type: cell-based; details: incl. 6 mm disc
[6] = test system: Unidentified yeast (CPC-PT-10); assay: agar diffusion test, wild fungi isolated from crown rot in bananas; assay type: cell-based; details: incl. 6 mm disc
Method: (§1) A. The “in vitro” antimicrobial activity of these compounds was tested (referenced as PTS and PTSO), at different doses, as well as their activity against a broad spectrum of bacteria, fungi and yeasts. The tests were conducted against standard micro-organisms (reference strains from different collections of standard crops) and also against wild strains isolated from different types of rot and fruits and other affected crops.
(§2) These tests of antimicrobial capacity were conducted according to the agar diffusion technique, using cellulose discs 6 mm in diameter, impregnated with the different doses under study. For the assessment of the anti-fungal capability, the medium Sabouraud glucosate agar 2% was used, inoculated with suspensions of spores prepared to a concentration on the order of 10^8 cells/ml. To assess the antibacterial capability, the cultivation medium Müller-Hinton agar was used, inoculated with suspensions of bacteria prepared to a concentration of 10^6 cells/ml.
(§3) Once the plates were inoculated, the discs previously impregnated with the different test doses of each of the compounds to be analyzed were put in place. The reading was taken after incubation of the plates by measuring the zone of inhibition that appeared, and the result was expressed in mm corresponding to the diameter of the halo that appeared (including the 6 mm of the cellulose disc).
(§4) Once the screening of the anti-microbial capability of the compounds claimed by the invention had been performed over a broad range of reference strains, their efficiency was corroborated against wild strains, which we isolated as specific pathogens that affect different crops of different geographic origins.

[7] = test system: Fusarium sp. (CPC-PT-8); assay: as above; assay type: cell-based; details: incl. 6 mm disc
Method: as §1, §2, §3, §4

[8] = test system: Colletotrichum sp. (CPC-PT-5); assay: as above; assay type: cell-based; details: incl. 6 mm disc
Method: as §1, §2, §3, §4

[9] = test system: Fusarium sp. (CPC-PT-9); assay: as above; assay type: cell-based; details: incl. 6 mm disc
Method: as §1, §2, §3, §4

[10] = test system: Fusarium sp. (CPC-PT-7); assay: as above; assay type: cell-based; details: incl. 6 mm disc
Method: as §1, §2, §3, §4

[11] = test system: Aspergillus niger CECT 2700; assay: agar diffusion test with impregnated cellulose discs; assay type: cell-based; details: incl. 6 mm disc
[12] = test system: Penicillium expansum; assay: post-harvest rotting of inoculated apples, drencher treatment; assay type: in vivo; details: 15 days of refrigeration at 5-6° C.
Method: (§5) The effectiveness of the active principle PTS (in various individual doses) was studied in the control of post-harvest rotting of pears and apples caused by the fungi Botrytis cinerea and Penicillium expansum, the principal agents of diseases in these fruits. These phytopathogens can appear in fruit being stored in a cold room and, once in the processing plant and in a later phase, form colonies and are transferred from one fruit to another by contact. The study was performed by means of a controlled inoculation test to ensure a high percentage of affected fruits, and to guarantee that this level of infection is with certainty caused by these pathogens, thereby making it possible to detect and evaluate significant differences between the different treatments. […] To perform the controlled inoculation, wild strains of Botrytris cinerea and Penicillium expansum were used which were isolated in fruit and vegetable processing plants. […] After the time indicated above had passed, the various post-harvest treatments were carried out by means of […] 25° C. for 60 seconds.

[13] = test system: Botrytis cinerea; assay: as above; assay type: in vivo; details: 15 days of refrigeration at 5-6° C.
Method: as §5

[14] = test system: Candida magnoliae DSMZ 70638; assay: agar diffusion test with impregnated cellulose discs; assay type: cell-based; details: incl. 6 mm disc
[15] = test system: Candida parapsilosis CCTM 1038; assay: as above; assay type: cell-based; details: incl. 6 mm disc

CCCSS(=O)(=O)CCC [PTSO, Propyl Propyl Thiosulfonate]
control capability against the most characteristic diseases of the crops (in words) [1]: high control capability

CCCS[S+]([O-])CCC (centres unmarked) [PTS, Propyl Propyl Thiosulfinate]
% of fruit affected ([2]; 2000 ppm): 3.8%
No. of fruits affected ([2]; 2000 ppm, 150 fruits): 6
% of fruit affected ([2]; 2400 ppm): 3.1%
No. of fruits affected ([2]; 2400 ppm, 148 fruits): 5
% of fruit affected ([2]; 4800 ppm): 3.1%
No. of fruits affected ([2]; 4800 ppm, 141 fruits): 4
% of fruit affected ([2]; 9600 ppm): 2%
No. of fruits affected ([2]; 9600 ppm, 114 fruits): 2
diameter of the microbial inhibition halo ([3]; 30 ppm): 0 mm
diameter of the microbial inhibition halo ([3]; 60 ppm): 11 mm
diameter of the microbial inhibition halo ([3]; 125 ppm): 13 mm
diameter of the microbial inhibition halo ([3]; 250 ppm): 20 mm
diameter of the microbial inhibition halo ([3]; 500 ppm): 23 mm
diameter of the microbial inhibition halo ([3]; 1000 ppm): 25 mm
diameter of the microbial inhibition halo ([4]; 25 ppm): 23 mm
diameter of the microbial inhibition halo ([4]; 50 ppm): 27 mm
diameter of the microbial inhibition halo ([4]; 100 ppm): 34 mm
diameter of the microbial inhibition halo ([5]; 25 ppm): 28 mm
diameter of the microbial inhibition halo ([5]; 50 ppm): 32 mm
diameter of the microbial inhibition halo ([5]; 100 ppm): 44 mm
diameter of the microbial inhibition halo ([6]; 30 ppm): 40 mm
diameter of the microbial inhibition halo ([6]; 60 ppm): 45 mm
diameter of the microbial inhibition halo ([6]; 125 ppm): 50 mm
diameter of the microbial inhibition halo ([6]; 250 ppm): 55 mm
diameter of the microbial inhibition halo ([6]; 500 ppm): 63 mm
diameter of the microbial inhibition halo ([6]; 1000 ppm): 65 mm
diameter of the microbial inhibition halo ([7]; 30 ppm): 0 mm
diameter of the microbial inhibition halo ([7]; 60 ppm): 10 mm
diameter of the microbial inhibition halo ([7]; 125 ppm): 12 mm
diameter of the microbial inhibition halo ([7]; 250 ppm): 15 mm
diameter of the microbial inhibition halo ([7]; 500 ppm): 20 mm
diameter of the microbial inhibition halo ([7]; 1000 ppm): 20 mm
diameter of the microbial inhibition halo ([8]; 30 ppm): 10 mm
diameter of the microbial inhibition halo ([8]; 60 ppm): 20 mm
diameter of the microbial inhibition halo ([8]; 125 ppm): 30 mm
diameter of the microbial inhibition halo ([8]; 250 ppm): 40 mm
diameter of the microbial inhibition halo ([8]; 500 ppm): 43 mm
diameter of the microbial inhibition halo ([8]; 1000 ppm): 43 mm
diameter of the microbial inhibition halo ([9]; 30 ppm): 0 mm
diameter of the microbial inhibition halo ([9]; 60 ppm): 0 mm
diameter of the microbial inhibition halo ([9]; 125 ppm): 0 mm
diameter of the microbial inhibition halo ([9]; 250 ppm): 15 mm
diameter of the microbial inhibition halo ([9]; 500 ppm): 30 mm
diameter of the microbial inhibition halo ([9]; 1000 ppm): 33 mm
diameter of the microbial inhibition halo ([10]; 30 ppm): 0 mm
diameter of the microbial inhibition halo ([10]; 60 ppm): 0 mm
diameter of the microbial inhibition halo ([10]; 125 ppm): 15 mm
diameter of the microbial inhibition halo ([10]; 250 ppm): 25 mm
diameter of the microbial inhibition halo ([10]; 500 ppm): 25 mm
diameter of the microbial inhibition halo ([10]; 1000 ppm): 35 mm
diameter of the microbial inhibition halo ([11]; 25 ppm): 10 mm
diameter of the microbial inhibition halo ([11]; 50 ppm): 13 mm
diameter of the microbial inhibition halo ([11]; 100 ppm): 19 mm
% of fruit affected ([12]; Golden Delicious, 500 ppm): 1.4%
% of fruit affected ([12]; Golden Delicious, 666 ppm): 0.5%
% of fruit affected ([12]; Golden Delicious, 833 ppm): 2.5%
% of fruit affected ([12]; Golden Delicious, 1666 ppm): 0.7%
% of fruit affected ([12]; Red Chief, 500 ppm): 2.8%
% of fruit affected ([12]; Red Chief, 666 ppm): 0%
% of fruit affected ([12]; Red Chief, 833 ppm): 3.2%
% of fruit affected ([12]; Red Chief, 1666 ppm): 2.4%
% of fruit affected ([13]; Golden Delicious, 500 ppm): 0.5%
% of fruit affected ([13]; Golden Delicious, 666 ppm): 0%
% of fruit affected ([13]; Golden Delicious, 833 ppm): 1%
% of fruit affected ([13]; Golden Delicious, 1666 ppm): 0%
% of fruit affected ([13]; Red Chief, 500 ppm): 1%
% of fruit affected ([13]; Red Chief, 666 ppm): 0%
% of fruit affected ([13]; Red Chief, 833 ppm): 1.5%
% of fruit affected ([13]; Red Chief, 1666 ppm): 0%
diameter of the microbial inhibition halo ([14]; 25 ppm): 22 mm
diameter of the microbial inhibition halo ([14]; 50 ppm): 30 mm
diameter of the microbial inhibition halo ([14]; 100 ppm): 38 mm
control capability against the most characteristic diseases of the crops (in words) [1]: high control capability
diameter of the microbial inhibition halo ([15]; 25 ppm): 0 mm
diameter of the microbial inhibition halo ([15]; 50 ppm): 14 mm
diameter of the microbial inhibition halo ([15]; 100 ppm): 17 mm
